Usually IC50 stands for the concentration that inhibits the measured activity by half.

We go through six molecules from US6331553A, “Aromatic amine derivatives having NOS inhibiting action” (Chugai Seiyaku Kabushiki Kaisha, priority 1996, dated 2001).

In experiment [1] the test system is iNOS. The note with it: reported in the literature; cited from earlier work.
For another experiment, the system named is NOS isoform. The note with it: reported in the literature; cited from earlier work.
In experiment [2] the test system is nNOS. The note with it: reported in the literature; cited from earlier work.
The target in experiment [3] is T1, iNOS (Rattus norvegicus, UniProt Q06518).
T1 construct: a soluble cytosolic fraction of the finally obtained supernatant was used as the crude enzyme of iNOS; from tissue; host or cells: lungs of LPS-treated rats, soluble cytosolic fraction (100,000×g supernatant)
Nature of the experiment: Inhibitory effect on crude iNOS (conversion of L-[3H]arginine to L-[3H]citrulline). In kind it is biochemical, Rats (lungs, LPS treated). The note with it: mean values, duplicate, crude enzyme from lungs of LPS-treated rats; 37° C. 10 min; read-out: Inhibitory action IC50 iNOS. The protocol: Compounds of the invention were evaluated for their inhibitory effect on the presently known three NOS isoforms.
The crude enzyme of iNOS was prepared by the following procedure. Rats were administered LPS (10 mg/kg) intraperitoneally and, 6 h later, perfused in a transcardiac manner with physiological saline containing 10 U/ml of heparin; thereafter, lungs were taken out. Subsequently, 5 volumes of 50 mM Tris-HCl containing 1 mM DTT (pH 7.4) was added and the mixture was homogenized for 3 min, followed by centrifugation of the homogenate at 1,000×g for 10 min. The resulting supernatant was centrifuged at 100,000×g for 60 min and a soluble cytosolic fraction of the finally obtained supernatant was used as the crude enzyme of iNOS.
The reaction was started by addition of L-[^3 H] arginine. After incubation at 37° C. for 10 min, the reaction was terminated by addition of 2 ml of 50 mM Tris-HCl (pH 5.5) containing 1 mM EDTA and placing the mixture on ice. The reaction solution was passed through a cation-exchange resin column (Dowex AG50WX-8, Na^+ form, 3.2 ml) to separate the reaction product L-[^3 H] citrulline from the unreacted residual substrate L-[^3 H] arginine. The eluate was combined with another eluate resulting from the passage of a given amount of distilled water through the column and put into a minivial for recovery of L-[^3 H] citrulline. Thereafter, a scintillation fluid was added and the contained radioactivity was measured with a liquid scintillation counter to determine the amount of L-[^3 H] citrulline.
The activity of nNOS or eNOS was determined by subtracting the activity detected in the absence of CaCl2 and calmodulin from the activity detected in the presence of CaCl2 and calmodulin. The activity of iNOS was detected in the absence of CaCl2 and calmodulin. The protein concentration of each crude enzyme sample was determined with a micro-assay kit of Bio Rad Co. Each Experiment was conducted in a duplicate.
The table also lists the ratios of IC50 values to each other as an index of selectivity.

Experiment [4] has as its system nNOS. The note with it: mouse model of focal cerebral ischemia; cited from earlier work.

With `CC(=N)NCCC[C@H](N)C(=O)O` [L-NIO, N^G -iminoethyl-L-ornithine], the “selectivity for iNOS” value in the experiment with iNOS [1] is recorded as “a certain degree of selectivity for iNOS”. With `N=C(N)NN` [AG, aminoguanidine], the “selectivity for iNOS” value in the experiment with iNOS [1] is “a certain degree of selectivity for iNOS”.

On to `COC(=O)[C@@H](N)CCCNC(=N)N[N+](=O)[O-]` [L-NAME, N^G -nitro-L-arginine methyl ester], for which, in the experiment on NOS isoform, the “highly selective inhibitory effect on a specific NOS isoform” value is “no existing NOS inhibitors including L-NA and N^G -nitro-L-arginine methyl ester (L-NAME) have a highly selective inhibitory effect on a specific NOS isoform”.

`CCSC(=N)NCCC[C@H](N)C(=O)O` [L-EIN, S-ethyl-L-thiocitrulline]: the “selectivity for nNOS” value in the experiment on nNOS [2] is “a certain degree of selectivity for nNOS”.

As to `N=C(NCCC[C@H](N)C(=O)O)N[N+](=O)[O-]` [L-NA, N^G -nitro-L-arginine, reference compound], the IC50 on iNOS [3] came out at 3.46 µM. In addition, the “percent inhibition of nNOS activity and percent reduction of infarct volume” value in the experiment on nNOS [4] is “correlate to each other”. For `CSC(=N)NCCC[C@H](N)C(=O)O` [L-MIN, S-methyl-L-thiocitrulline], the “selectivity for nNOS” value with nNOS [2] is recorded as “a certain degree of selectivity for nNOS”.
